Measurements from patent publication US10071103B2, “Treatments for resistant acne” (VYOME BIOSCIENCES PVT. LTD., priority 2014, dated 2018).
In brackets after ≈: the same amount, converted by molar mass.

Columns and labels:
IL-8 = assay: P. acnes-induced IL-8 release in THP-1 cells (ELISA); type: cell-based; conditions: THP-1 cells
Procedure: (§1) Method: Preparation of Stimulant for Inflammation: P. acnes culture suspension was prepared in PBS and the cell number in the suspension was adjusted to approximately 5×10^8 CFU/ml by measuring the cell density using a Densimat. The bacterial suspension was then heat killed at 80° C. for 30 min and stored at −80° C. until further use.
(§2) Cells were seeded in a 96-well format (2×10^5 THP-1 cells per well) in media containing 10% FBS. The cells were stimulated to induce inflammatory cytokines using 3 McFarland equivalent heat-killed P. acnes. Cells in control wells were treated with PBS. One hour after induction with P. acnes, test agents were added to the induced cells at appropriate concentrations to be tested (compound 91 at 25 μg/ml). The plates were incubated at 37° C. for 24 hours. After 24 h, the plates were centrifuged to pellet the cells and the supernatants were collected. The cell culture supernatants thus obtained were analyzed for levels of cytokines (IL-1α, IL-1β, IL-6 and IL-8) by ELISA using R&D Systems kits for individual cytokines following the manufacturer's instructions.
as §1, with “Preparation” for “Method: Preparation”, “stimulant” for “Stimulant”, “inflammation:” for “Inflammation:”
(§3) Cells were seeded in a 96-well format (2×10^5 THP-1 cells per well) in media containing 10% FBS. The cells were stimulated to induce inflammatory cytokines using 3 McFarland equivalent heat-killed P. acnes. Cells in control wells were treated with PBS. One hour after induction with P. acnes, test agents were added to the induced cells at appropriate concentrations (Besifloxacin at 10 and 30 μg/ml; Adapalene at 0.04 and 0.4 μg/ml). The plates were incubated at 37° C. for 24 hours. After 24 h, the plates were centrifuged to pellet the cells and the supernatants were collected. The cell culture supernatants thus obtained were analyzed for cytokine levels (IL-6 and IL-8) by ELISA using R&D Systems kits for individual cytokines following the manufacturer's instructions.

IL-6 = assay: P. acnes-induced IL-6 release in THP-1 cells (ELISA); type: cell-based; conditions: THP-1 cells
Procedure: as §1, §2
as §1, with “Preparation” for “Method: Preparation”, “stimulant” for “Stimulant”, “inflammation:” for “Inflammation:”
as §3

P. acnes CCARM 9010 [1] = assay: In vitro time kill kinetics, P. acnes CCARM 9010; type: cell-based, Propionibacterium acnes; conditions: 2.5 μg/ml
Procedure: P. acnes (CCARM 9010) Aqueous Suspension (0.5 McFarland standard equivalent) was centrifuged at 2000 rpm for 20 min, pellet was resuspended in Brain Heart Infusion (BHI) broth. Resultant P. acnes suspension was kept for overnight (16 h) incubation in anaerobic box at 37° C. Stock solution of besifloxacin.HCl (1 mg/ml) was prepared in dimethyl sulphoxide (DMSO) which was further diluted with BHI broth to achieve working stock of besifloxacin.HCl (25 μg/ml). Then reaction mixture was prepared by adding 900 μl of P. acnes 0.5 McFarland standard culture (after 16 h incubation) to 100 μl of besifloxacin.HCl working stock solution (25 μg/ml), final besifloxacin.HCl concentration in reaction mixture was 2.5 μg/ml. Reaction mixture (1 ml) was incubated at 37° C. for 24 h in an anaerobic box in two sets—(1) tube with P. acnes with 2.5 μg/ml Besifloxacin.HCl and 2) broth control without besifloxacin.HCl. At predetermined time points (1 h, 6 h and 24 h), cells were collected and plated in duplicate after serial dilution in Brain Heart Infusion agar plate. Plates were allowed to grow for 3 days at 37° C. in anaerobic box. After incubation, plates were counted to determine colony forming units (CFU) and log reduction was calculated. In a similar experimental set-up, water was used as solvent instead of DMSO and effects of solvents on time kill kinetics were also studied.
2) Zone of Inhibition (ZOI): For ZOI test, BHA plates were spread with 100 μl of P. acnes suspension (0.5 McFarland standard equal). Test samples (drugs/formulations) were dissolved in water/solvent based on the solubility. Sterile disc (6 mm) were loaded with 10 μl of test samples (of various concentration of drug), and were placed above the plates containing P. acnes culture. Then, plates were incubated at 37° C. for 48 h, followed by their ZOI measurements. 3) Time Kill Kinetics (TK): For TK Test, P. acnes (CCARM 9010) aqueous suspension (0.5 McFarland standard equivalent) was centrifuged at 2000 rpm for 20 min, pellet was resuspended in brain heart infusion (BHI) broth. Resultant P. acnes suspension was kept for overnight (16 h) incubation in anaerobic box at 37° C. Stock solution of besifloxacin.HCl (1 mg/ml) was prepared in dimethyl sulphoxide (DMSO) which was further diluted with BHI broth to obtain working stock of besifloxacin.HCl (25 μg/ml). Then reaction mixture was prepared by adding 900 μl of P. acnes 0.5 McFarland standard equal culture (after 16 h of incubation) and 100 μl of besifloxacin.HCl working stock (25 μg/ml), to obtain final besifloxacin.HCl concentration in reaction mixture, 2.5 μg/ml. Reaction mixture (1 ml) was incubated at 37° C. in an anaerobic box—(1) tube with P. acnes and 2.5 μg/ml Besifloxacin.HCl and 2) broth control without besifloxacin.HCl for 24 h. At predetermined time points (0 h, 2 h, 8 h and 24 h), cells were collected and plated in duplicate after serial dilution in brain heart infusion agar plate. Plates were allowed to grow for 3 days at 37° C. in anaerobic box. After incubation, plates were counted to determine colony forming units (CFU) and log reduction was calculated.
0.5 McFarland standard equal P. acnes (CCARM 9010) culture was prepared in sterile water. Prepared culture was centrifuged at 2000 rpm for 20 min then supernatant was removed and similar amount of brain heart infusion (BHI) broth was added. P. acnes culture in BHI broth was kept for overnight (16 h.) incubation in anaerobic box at 37° C. Besifloxacin powder was diluted in water and DMSO to prepare 1 mg/ml stock and then both were further diluted in BHI broth to make final concentration of 100 μg/ml. 900 μl of P. acnes 0.5 McFarland culture (after 16 h. incubation) and 100 μl of diluted Besifloxacin (100 μg/ml) were mixed to obtain final Besifloxacin concentration 10 μg/ml in reaction mixture. Total reaction mixture (1 ml) was incubated at 37° C. in an anaerobic box.

S. aureus MTCC 6908 = assay: MIC by micro broth dilution, laboratory S. aureus strain; type: cell-based, Staphylococcus aureus; conditions: Staphylococcus aureus, MTCC6908; Table 6; read-out: MIC Susceptible S. aureus (6908) strain
Procedure: (§4) The plates were incubated at 37° C. for 48 h under anaerobic condition for P. acnes and 37° C. for 24 h for S. aureus The plates were read under Bio-Rad plate reader at 595 nm for optical density to generate the dose-response curves. The MIC of the test compound was recorded by addition of Alamar blue dye.
S. aureus MTCC 6908 were grown in Tryptone Soya Agar (TSA) at 37° C. for 24 hours. […] Plates were incubated at 37° C. for 24 hours. […] (2) Zone of Inhibition (ZOI): S. aureus MTCC 6908 were grown in Tryptone Soya Agar (TSA) at 37° C. for 24 hours. BHA plates are spreaded with 100 μl of 0.5 McFarland standard equal bacterial suspension. Test samples (drugs/formulations) were dissolved in water/solvent based on the solubility. Sterile disc (6 mm) were loaded with 10 μl of test samples (of various concentration of drug), and were placed above the spreaded plates. Plates were incubated at 37 C for 24 h, followed by ZOI measurement. (3) Time Kill Assay: 0.5 McFarland standard equal S. aureus culture was prepared in sterile water. Besifloxacin gels were diluted in Tryptone Soya broth (TSB) to get final concentration of 25 μg/ml. Then 900 μl of S. aureus 0.5 McFarland standard equal culture and 100 μl of diluted Besifloxacin gel was mixed to obtain final Besifloxacin concentration, 2.5 μl g/ml. Total reaction mixture (1 ml) was incubated at 37° C. in a tube rotator. After 2 and 6 h exposure, bacterial suspension was placed on Tryptone soya agar plate and incubated at 37° C. for 24 h.
Inoculated plates were incubated at 37° C. for 24 hours.

P. acnes MTCC 1951 = assay: MIC by micro broth dilution (Alamar blue), clindamycin-susceptible P. acnes; type: cell-based, Propionibacterium acnes; conditions: for Activity / bacterial killing, dose response curve (in words): clindamycin-susceptible MTCC 1951
Procedure: as §4
(§5) P. acnes (MTCC 3297, MTCC 1951& CCARM 9010) are cultured in Brain Heart Infusion (BHI) Broth at 37° C. for 48-72 h under anaerobic condition. The test compounds/formulations are initially diluted with suitable solvent and further diluted with BHI broth to get the required concentrations. Samples (100 μl) of different concentrations (prepared by serial dilution) are added to 96-well plate. To the wells, 100 μl of P. acnes BHI broth culture is added [culture turbidity adjusted against 0.5 McFarland standard (approx 1.5×10^8), and further diluted 100-fold with sterile BHI broth]. In addition Growth Control and Sterility Control are created using 100 μl each of P. acnes BHI broth culture and plain BHI broth, respectively.
(§6) Plates are incubated at 37° C. for 48-72 hrs under anaerobic condition. The plate is read under Bio-Rad plate reader @ 595 nm for optical density to generate the dose-response curves. The MIC of the test compound is recorded by addition of Alamar blue dye.
BHI broth and BHI agar media were prepared as per the manufacturer's instruction and autoclaved at 121° C. for 15 minutes. […] For MIC determination testing, gels are dissolved in the solvent and further diluted with BHI broth. Then, 96 wells plate are filled with 100 μl of BHI broth containing drug with different concentration to get the final concentrations of 0.06, 0.13, 0.25, 0.5, 1 and 2 μg/ml in different lanes (lane 1 to lane 6). Remaining lanes of the 96 well plate are used as growth control and sterility control. Finally, P. acnes culture suspension (approx 1.5×10^6) is added in all the wells except sterility control wells and plate is incubated at 37° C. for 48-72 h under anaerobic condition. At the end of 72 h, Alamar blue solution (20 μl) is added into the wells and incubated at 37° C. for 2 h. Plate is visualized for bacterial inhibitions and MIC values of the tested samples are determined. […]

E. coli DNA gyrase = target: T1, E. coli DNA gyrase (Escherichia coli, UniProt P0AES4+P0AES6); assay: DNA gyrase super-coiling activity assay (Topogen kit, relaxed pHOT1 plasmid); type: biochemical; conditions: 1 μM and 2.5 μM
T1 construct: purchased Topogen Inc
Procedure: DNA super-coiling activity was assayed using DNA gyrase assay kit (Topogen Inc.) with relaxed pHOT1 E. coli plasmid DNA according to manufacturer's protocol. The standard reaction mixture (20 μl) contained 35 mM Tris-HCl (pH 7.5), 24 mM KCl, 4 mM MgCl2, 2 mM dithiothreitol, 1.8 mM spermidine, 1 mM ATP, 6.5% glycerol, 0.1 mg/ml bovine serum albumin (BSA), 10 μg/ml relaxed pHOT1 plasmid DNA and 1 U of DNA gyrase. The reaction mixture was incubated at 37° C. for 1 h in presence of selected compounds/fluoroquinolone at different concentrations. The reaction was terminated by addition of ⅕ volume of loading dye (4 μl) followed by proteinase K (50 μg/ml) and again incubated at 37° C. for half an hour. 20 μl chloroform/isoamyl alcohol (24:1) was added to each tube and vortexed briefly. Thereafter, the blue aqueous phase was separated out and analyzed by 1% agarose gel electrophoresis. The gel was stained by ethidium bromide for half an hour and destained with water for 15 mins. The gel was then visualized in a trans-illuminator and photographed.

P. acnes CCARM 9010 [2] = assay: MIC by micro broth dilution (Alamar blue), clindamycin-resistant/nonresponsive P. acnes; type: cell-based, Propionibacterium acnes; conditions: for Activity / bacterial killing, dose response curve (in words): clindamycin-nonresponsive CCARM 9010
Procedure: as §4, §5, §6

[3] = Cells + P. acnes + 10 μg/ml, 24 h, Table 70
[4] = Cells + P. acnes + 30 μg/ml, 24 h, Table 70
[5] = Cells + P. acnes + Besifloxacin•HCl 10 μg/ml, Table 71

T1 sequence (P0AES4 whole entry, one chain of several): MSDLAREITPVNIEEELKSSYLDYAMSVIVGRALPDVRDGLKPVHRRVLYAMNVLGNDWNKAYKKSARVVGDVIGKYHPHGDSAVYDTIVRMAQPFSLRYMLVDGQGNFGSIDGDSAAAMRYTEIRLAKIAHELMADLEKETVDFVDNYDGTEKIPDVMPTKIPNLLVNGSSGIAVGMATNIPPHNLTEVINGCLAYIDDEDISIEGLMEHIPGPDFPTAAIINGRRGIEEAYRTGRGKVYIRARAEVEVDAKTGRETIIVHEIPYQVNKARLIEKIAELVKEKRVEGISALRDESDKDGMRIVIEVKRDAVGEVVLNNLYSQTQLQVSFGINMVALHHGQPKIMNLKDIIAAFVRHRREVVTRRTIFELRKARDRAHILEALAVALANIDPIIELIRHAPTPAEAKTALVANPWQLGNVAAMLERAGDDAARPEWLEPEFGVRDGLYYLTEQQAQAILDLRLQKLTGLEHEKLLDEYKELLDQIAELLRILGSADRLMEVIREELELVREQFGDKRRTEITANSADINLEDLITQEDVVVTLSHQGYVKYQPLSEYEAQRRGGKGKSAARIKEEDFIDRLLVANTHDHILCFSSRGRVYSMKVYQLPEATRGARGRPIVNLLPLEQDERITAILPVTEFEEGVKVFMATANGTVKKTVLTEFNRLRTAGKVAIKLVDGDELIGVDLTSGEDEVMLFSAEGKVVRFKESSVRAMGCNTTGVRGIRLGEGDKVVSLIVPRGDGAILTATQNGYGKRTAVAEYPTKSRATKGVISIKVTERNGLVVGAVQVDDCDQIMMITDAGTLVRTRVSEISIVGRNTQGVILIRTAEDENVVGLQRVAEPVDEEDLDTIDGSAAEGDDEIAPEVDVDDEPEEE

For `Cl.N[C@@H]1CCCCN(c2c(F)cc3c(=O)c(C(=O)O)cn(C4CC4)c3c2Cl)C1` [Besifloxacin•HCl], the “Expression of Cytokines IL-8 (pg/ml) Mean” value (IL-8; [3]) was 2484.8 pg/mL, the “Expression of Cytokines IL-8 (pg/ml) Mean” value (IL-8; [4]) was 2301.6 pg/mL and the “Expression of Cytokines IL-8 (pg/ml) Mean” value (IL-8; [5]) was 2484.76 pg/mL. For the same molecule, the “Expression of Cytokines IL-6 (pg/ml) Mean” value (IL-6; [3]) was 282.45 pg/mL, the “Expression of Cytokines IL-6 (pg/ml) Mean” value (IL-6; [4]) was 124.58 pg/mL and the “Expression of Cytokines IL-6 (pg/ml) Mean” value (IL-6; [5]) was 282.45 pg/mL. For the same molecule, the “Log 10 value of P. acnes” value (P. acnes CCARM 9010 [1]; stock in DMSO, 0 h) was 7.0 ± 0.02, the “Log 10 value of P. acnes” value (P. acnes CCARM 9010 [1]; stock in DMSO, 1 h) was 6.7 ± 0.03 and the “Log 10 value of P. acnes” value (P. acnes CCARM 9010 [1]; stock in DMSO, 6 h) was 6.0 ± 0.05. The “Log 10 value of P. acnes” value (P. acnes CCARM 9010 [1]; stock in DMSO, 24 h) was 5.2 ± 0.02, the “Log 10 value of P. acnes” value (P. acnes CCARM 9010 [1]; stock in water, 0 h) was 7.0 ± 0.02 and the “Log 10 value of P. acnes” value (P. acnes CCARM 9010 [1]; stock in water, 1 h) was 6.7 ± 0.03. The “Log 10 value of P. acnes” value (P. acnes CCARM 9010 [1]; stock in water, 6 h) was 6.0 ± 0.02 and the “Log 10 value of P. acnes” value (P. acnes CCARM 9010 [1]; stock in water, 24 h) was 5.2 ± 0.02.

For `Cc1ncc([N+](=O)[O-])n1CC(CCl)OC(=O)CN1CCN(c2cc3c(cc2F)c(=O)c(C(=O)O)c2n3C(C)S2)CC1` (stereo not shown) [Compound 90, 7-{4-[1-Chloromethyl-2-(2-methyl-5-nitro-imidazol-1-yl)-ethoxycarbonylmethyl]-piperazin-1-yl}-6-fluoro-1-methyl-4-oxo-4H-2-thia-8b-aza-cyclobuta[a]naphthalene-3-carboxylic acid], the MIC (S. aureus MTCC 6908) was 1 µg/mL (≈ 1.64 µM), the MIC (P. acnes MTCC 1951; Cutibacterium acnes, MTCC1951, read-out: MIC Susceptible P. acnes (1951) strain) was 1.7 µg/mL (≈ 2.79 µM) and the “Activity / bacterial killing, dose response curve (in words)” value (shortened to “Activity / bacterial killing”) (P. acnes MTCC 1951) was “ineffective”. The “Activity / bacterial killing” value (P. acnes MTCC 1951; listed as compound 90) was “not active”, the “Inhibition of super-coiling activity of DNA gyrase (in words)” value (E. coli DNA gyrase) was “able to inhibit the super-coiling activity” and the MIC (P. acnes CCARM 9010 [2]; Cutibacterium acnes, CCARM9010, read-out: MIC Resistant P. acnes (9010) strain) was 0.9 µg/mL (≈ 1.48 µM). For the same molecule, the “Activity / bacterial killing” value (P. acnes CCARM 9010 [2]) was “shows activity” and the “Activity / bacterial killing” value (P. acnes CCARM 9010 [2]; listed as compound 90) was “promising activity”.
